Measurements reported in ChEMBL document CHEMBL6078669, “Stereoisomers of cannabidiols and their pharmacological activities - A potentially novel direction for cannabinoids” (Bioorg Med Chem, 2025).
Values joined by “and” are separate entries in the source; they are usually repeats but may differ in a detail not shown here. Equal entries are not always repeated.

How the values were obtained:
Cannabinoid receptor 2 [1] = biological target: T1, Cannabinoid receptor 2 (Homo sapiens, UniProt P34972); assay: Displacement of [3H]HU-243 from CB2 receptor (unknown origin) extracted from green monkey COS-7 cell membrane assessed as inhibition constant incubated for 90 mins; assay type: cell membranes
T1 sequence (P34972 whole entry): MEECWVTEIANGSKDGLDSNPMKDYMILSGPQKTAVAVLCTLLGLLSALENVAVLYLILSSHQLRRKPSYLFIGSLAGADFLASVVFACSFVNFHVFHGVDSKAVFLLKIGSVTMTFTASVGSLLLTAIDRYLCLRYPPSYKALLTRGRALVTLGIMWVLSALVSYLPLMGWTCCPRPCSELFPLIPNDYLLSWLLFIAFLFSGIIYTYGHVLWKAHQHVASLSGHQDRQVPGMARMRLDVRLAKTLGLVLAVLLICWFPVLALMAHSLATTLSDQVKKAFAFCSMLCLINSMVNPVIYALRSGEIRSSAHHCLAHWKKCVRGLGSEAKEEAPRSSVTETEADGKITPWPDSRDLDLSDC

[2] = Inhibition of [14C]-arachidonoylethanolamide uptake in rat RBL-2H3 cells assessed as increase in AEA level incubated for 5 mins by scintillation counting; assay type: functional, cell-based; conditions: RBL-2H3, 5 min
Cannabinoid receptor 1 [3] = biological target: T2, Cannabinoid receptor 1 (Rattus norvegicus, UniProt P20272); assay: Displacement of [3H]HU-243 from Sabra rat brain synaptosome CB1 receptor assessed as inhibition constant incubated for 90 mins; assay type: subcellular
T2 sequence (P20272 whole entry): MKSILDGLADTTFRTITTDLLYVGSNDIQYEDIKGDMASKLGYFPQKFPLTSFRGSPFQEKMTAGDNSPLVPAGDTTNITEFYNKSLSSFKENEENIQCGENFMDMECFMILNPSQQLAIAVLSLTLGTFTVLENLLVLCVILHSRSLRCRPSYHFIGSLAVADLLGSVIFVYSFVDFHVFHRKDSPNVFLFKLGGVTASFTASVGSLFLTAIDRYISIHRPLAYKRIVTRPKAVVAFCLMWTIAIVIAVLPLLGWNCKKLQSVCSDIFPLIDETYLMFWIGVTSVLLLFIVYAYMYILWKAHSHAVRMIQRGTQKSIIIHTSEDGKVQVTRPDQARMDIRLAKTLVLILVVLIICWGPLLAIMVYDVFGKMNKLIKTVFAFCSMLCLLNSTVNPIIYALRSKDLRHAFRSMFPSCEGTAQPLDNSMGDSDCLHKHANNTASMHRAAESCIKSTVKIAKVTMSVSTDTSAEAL

Cannabinoid receptor 1 [4] = biological target: T2, Cannabinoid receptor 1; assay: Displacement of [3H]HU-243 from Sabra rat brain synaptosome CB1 receptor assessed as inhibition constant; assay type: subcellular
Cannabinoid receptor 2 [5] = biological target: T1, Cannabinoid receptor 2; assay: Binding affinity to CB2 receptor (unknown origin) assessed as inhibition constant
Cannabinoid receptor 1 [6] = biological target: T3, Cannabinoid receptor 1 (Homo sapiens, UniProt P21554); assay: Binding affinity to CB1 receptor (unknown origin) assessed as inhibition constant
T3 sequence (P21554 whole entry): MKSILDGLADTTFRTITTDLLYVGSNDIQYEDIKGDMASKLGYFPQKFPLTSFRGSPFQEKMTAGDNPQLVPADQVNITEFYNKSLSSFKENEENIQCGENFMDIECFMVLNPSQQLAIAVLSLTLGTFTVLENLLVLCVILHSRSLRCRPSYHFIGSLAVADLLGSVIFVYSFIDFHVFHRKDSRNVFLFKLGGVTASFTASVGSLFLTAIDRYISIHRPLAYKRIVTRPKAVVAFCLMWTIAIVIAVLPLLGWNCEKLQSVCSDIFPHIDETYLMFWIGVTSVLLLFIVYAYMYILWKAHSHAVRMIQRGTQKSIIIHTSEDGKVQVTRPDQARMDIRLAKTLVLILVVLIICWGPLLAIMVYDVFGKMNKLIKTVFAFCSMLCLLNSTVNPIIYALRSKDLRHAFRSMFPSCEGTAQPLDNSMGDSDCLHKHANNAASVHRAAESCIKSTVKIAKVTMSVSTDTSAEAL

[7] = Selectivity index, ratio of Ki for Sabra rat brain synaptosome CB1 receptor to Ki for CB2 receptor (unknown origin) extracted from green monkey COS-7 cells
[8] = biological target: Transient receptor potential cation channel subfamily V member 1 (Homo sapiens, UniProt Q8NER1); assay: Agonist activity at human TRPV1 receptor expressed in HEK293 cells assessed as effect on [Ca2+]i preincubated with capsazepine for 30 mins followed by compound addition by Fluo-3 probe based fluorescence analysis; assay type: cell-based
Sequence of Transient receptor potential cation channel subfamily V member 1 (Q8NER1 whole entry): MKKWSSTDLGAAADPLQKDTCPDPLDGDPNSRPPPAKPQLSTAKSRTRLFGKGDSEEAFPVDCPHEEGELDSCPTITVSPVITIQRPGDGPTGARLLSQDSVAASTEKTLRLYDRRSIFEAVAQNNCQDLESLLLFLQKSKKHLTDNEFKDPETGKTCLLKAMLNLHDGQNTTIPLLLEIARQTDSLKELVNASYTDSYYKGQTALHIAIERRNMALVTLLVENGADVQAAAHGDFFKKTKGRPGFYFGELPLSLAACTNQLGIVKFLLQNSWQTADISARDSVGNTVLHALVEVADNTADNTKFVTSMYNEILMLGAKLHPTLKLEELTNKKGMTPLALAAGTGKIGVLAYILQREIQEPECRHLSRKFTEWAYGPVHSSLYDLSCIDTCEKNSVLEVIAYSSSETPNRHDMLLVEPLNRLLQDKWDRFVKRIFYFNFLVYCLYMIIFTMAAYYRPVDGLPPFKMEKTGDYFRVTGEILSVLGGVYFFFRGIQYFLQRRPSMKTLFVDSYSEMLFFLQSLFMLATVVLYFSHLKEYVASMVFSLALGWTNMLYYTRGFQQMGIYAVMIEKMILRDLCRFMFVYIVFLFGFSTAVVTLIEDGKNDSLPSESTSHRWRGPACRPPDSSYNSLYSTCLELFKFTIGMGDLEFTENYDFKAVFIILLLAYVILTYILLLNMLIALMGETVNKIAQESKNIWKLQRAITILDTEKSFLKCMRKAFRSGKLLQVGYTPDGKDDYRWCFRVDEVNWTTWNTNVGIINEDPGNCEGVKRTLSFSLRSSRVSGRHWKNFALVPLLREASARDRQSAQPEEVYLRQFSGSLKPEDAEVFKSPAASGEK

[9] = biological target: T4, Fatty-acid amide hydrolase 1 (Mus musculus, UniProt O08914); assay: Inhibition of FAAH-mediated [14C]-AEA hydrolysis in mouse N18TG2 cell membrane incubated for 30 mins by scintillation counting; assay type: cell membranes
T4 sequence (O08914 whole entry): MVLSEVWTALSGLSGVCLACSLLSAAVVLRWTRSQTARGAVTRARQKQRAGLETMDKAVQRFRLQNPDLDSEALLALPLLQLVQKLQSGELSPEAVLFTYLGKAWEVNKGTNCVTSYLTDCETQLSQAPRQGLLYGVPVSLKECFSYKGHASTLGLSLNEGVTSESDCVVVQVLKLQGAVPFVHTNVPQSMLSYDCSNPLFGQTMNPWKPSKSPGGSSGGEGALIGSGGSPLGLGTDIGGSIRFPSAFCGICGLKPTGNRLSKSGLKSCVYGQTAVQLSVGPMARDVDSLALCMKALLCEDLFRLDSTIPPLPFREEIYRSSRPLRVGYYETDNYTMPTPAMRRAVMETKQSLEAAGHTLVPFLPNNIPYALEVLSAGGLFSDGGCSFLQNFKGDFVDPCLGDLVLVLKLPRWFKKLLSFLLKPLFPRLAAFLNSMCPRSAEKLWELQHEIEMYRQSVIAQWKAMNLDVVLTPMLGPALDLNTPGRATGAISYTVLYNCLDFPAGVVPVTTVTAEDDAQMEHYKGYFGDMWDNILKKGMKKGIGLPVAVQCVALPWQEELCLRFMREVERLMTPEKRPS

Homo sapiens = species on record: Homo sapiens; assay: Selectivity ratio of Ki for human CB1 receptor extracted from HEK293 cell membrane to Ki for human CB2 receptor extracted from HEK293 cell membrane
Cannabinoid receptor 1 [10] = biological target: T3, Cannabinoid receptor 1; assay: Displacement of [3H]CP-55,940 from human CB1 receptor extracted from HEK293 cell membrane assessed as inhibition constant incubated for 90 mins by liquid scintillation spectrophotometric analysis; assay type: cell membranes
Cannabinoid receptor 2 [11] = biological target: T1, Cannabinoid receptor 2; assay: Displacement of [3H]CP-55,940 from human CB2 receptor extracted from HEK293 cell membrane assessed as inhibition constant incubated for 90 mins by liquid scintillation spectrophotometric analysis; assay type: cell membranes
[12] = Selectivity ratio of Ki for CB1 receptor (unknown origin) to Ki for CB2 receptor (unknown origin)
Cannabinoid receptor 1 [13] = biological target: T2, Cannabinoid receptor 1; assay: Displacement of [3H]CP-55,940 from Sabra rat brain synaptosome CB1 receptor assessed as inhibition constant incubated for 90 mins; assay type: subcellular
Cannabinoid receptor 2 [14] = biological target: T1, Cannabinoid receptor 2; assay: Displacement of [3H]CP-55,940 from human CB2 receptor extracted from CHO cell membrane assessed as inhibition constant incubated for 90 mins; assay type: cell membranes

| SMILES | Ki (Cannabinoid receptor 2 [1]) [nM] | Ki (Cannabinoid receptor 1 [3]) [nM] | Ki (Cannabinoid receptor 2 [5]) | Ki (Cannabinoid receptor 1 [6]) [nM] | other results |
| --- | --- | --- | --- | --- | --- |
| C=C(C)[C@H]1CCC(CO)=C[C@@H]1c1c(O)cc(C(C)(C)CCCCCC)cc1O | 44 | 2.5 | – | – | IC50 [2]: 7 µM |
| CCCCCCC(C)(C)c1cc(OC)c([C@H]2C=C(CO)[C@H]3C[C@@H]2C3(C)C)c(OC)c1 | – | – | – | – | Ki (Cannabinoid receptor 1 [4]): > 10 µM |
| COc1cc(C(C)(C)CCCCCCN=C=S)cc(OC)c1[C@@H]1C=C(CO)[C@@H]2C[C@H]1C2(C)C | – | – | 121 nM | > 1000 | – |
| C=C(C)[C@H]1CCC(CO)=C[C@@H]1c1c(O)cc(CCCCC)cc1O | 101 | 5.3 | – | – | Ratio Ki [7]: 0.05 |
| C=C(C)[C@@H]1CCC(C(=O)O)=C[C@H]1c1c(O)cc(C(C)(C)CCCCCC)cc1O | – | – | > 1000 nM | > 1000 | – |
| C=C(C)[C@H]1CCC(C)=C[C@@H]1c1c(O)cc(CCCCC)cc1O | – | – | – | – | IC50 [2]: 17 µM; EC50 [8]: 3.2 µM; IC50 [9]: 63.5 µM |
| C=C(C)[C@@H]1CCC(C)=C[C@H]1c1c(O)cc(CCC)cc1O [CANNABIDIVARIN] | – | – | – | > 1000 | – |
| C=C(C)[C@@H]1CCC(CO)=C[C@H]1c1c(O)cc(CCCCC)cc1O | > 1000 | > 1000 | – | – | – |
| C=C(C)[C@H]1CCC(C)=C[C@@H]1c1c(O)cc(CCC)c(C(=O)OC)c1O | – | – | – | – | Ratio Ki (Homo sapiens): 12.3; Ki (Cannabinoid receptor 1 [10]): 345 nM; Ki (Cannabinoid receptor 2 [11]): 28 nM |
| COc1cc(C(C)(C)CCCCCCN=C=S)cc(OC)c1[C@H]1C=C(CO)[C@H]2C[C@@H]1C2(C)C | – | – | 13.1 nM | 2670 | Ratio Ki [12]: 203 |
| CCCCCCC(C)(C)c1cc(O)c(-c2c(CO)cccc2C(C)C)c(OC)c1 | – | – | 0.64 nM and 0.28 nM | > 1000 | Ratio Ki [12]: 17 |
| CCCCCc1cc(O)c([C@@H]2C=C(CO)CC[C@H]2C(C)C)c(O)c1 | – | – | – | – | Ki (Cannabinoid receptor 1 [13]): > 1000 nM; Ki (Cannabinoid receptor 2 [14]): > 1000 nM |
| C=C(C)[C@H]1CCC(C)=C[C@@H]1c1c(OC)cc(C(C)(C)CCCCCC)cc1OC | > 1000 | > 1000 | – | – | – |
